Data as given in patent US20240024317A1, “CANCER TREATMENT USING BOSENTAN IN COMBINATION WITH A CHECKPOINT INHIBITOR” (Materia Therapeutics Inc., priority 2020, published 2024).

What was measured:
Type in all cases: in vivo, mice
E0771 tumors [1] = experiment: Interstitial fluid pressure (IFP), wick-in-needle technique; details: 1 mg/kg bosentan
Experimental: Mice bearing syngeneic, orthotopic triple negative breast cancer (TNBC) were treated with a range of sub-therapeutic doses of bosentan, from 0.2 mg/kg to 10 mg/kg of body weight. Orthotopic models for murine mammary tumors were generated by implantation of 5×10^4 4T1 or E0771 cancer cells in 40 μl of serum-free medium into the third mammary fat pad of 6-8-week-old BALB/c and C57BL/6 female mice, respectively. 4T1 (ATCC® CRL-2539TH) and E0771 (94A001, CH3 BioSystems) mouse breast adenocarcinoma cell lines were purchased form ATCC and CH3 BioSystems, respectively. The cells were maintained at 37° C./5% CO2 in Roswell Park Memorial Institute medium (RPMI-1640, LM-R1637, Biosera) supplemented with 10% fetal bovine serum (FBS, FB-1001H, biosera) and 1% antibiotics (A5955, Sigma). Bosentan (bosentan Hydrate (S3051, Selleckchem) was dissolved in ddH2O containing 2% DMSO (GK2245, Glentham Life Science), 30% PEG300 (S6704, Selleckchem) and 2% Tween 80 (S6702, Selleckchem)) 1 mg/kg, 5 mg/kg, 10 mg/kg or equal volume of diluent (control group) was administered by intraperitoneal injection (i.p.) once a day for 10 days, starting from once the tumor volumes reached an average size of 100 mm^3. Tumors were excised when they reached an average size of 500 mm^3. Tissue stiffness was then measured non-invasively and longitudinally using ultrasound elastography. […]

4T1 tumors = experiment: Shear wave elastography of tumor stiffness (Example 5); details: bosentan 1 mg/kg
Text: Ultrasound elastography. Shear wave elestography was employed on a premier Philips EPIQ Elite Ultrasound system using a handheld linear array (eL 18-4) transducer. The method generates shear wave velocity via an acoustic push pulse, creating a color mapped elastogram where red indicates hard tissue and blue indicates soft tissue. A confidence display was also used as a reference of the highest shear wave quality of the user-defined region of interest (ROI). The average value of the tumor region was automatically generated by the system under default scanner settings and expressed in kPa. The settings that were used were: frequency, 10 MHz; power, 52%; B-mode gain, 22 dB; dynamic range, 62 dB. Shear wave imaging was performed prior to immunotherapy cocktail treatment on day 19 and as well on days 23 and 26.

E0771 tumors [2] = experiment: Atomic force microscopy (AFM) Young's modulus and stiffness fingerprint of excised tumors

## COc1ccccc1Oc1c(NS(=O)(=O)c2ccc(C(C)(C)C)cc2)nc(-c2ncccn2)nc1OCCO [bosentan, 4-tert-butyl-N-[6-(2-hydroxy-ethoxy)-5-(2-methoxy-phenoxy)-2-(pyrimidin-2-yl)pyrimidin-4-yl] benzenesulfonamide]
E0771 tumors [1]
  interstitial fluid pressure: decrease in interstitial fluid pressure
4T1 tumors
  reduction of tumor stiffness: more than half
  tumor stiffness (elastic modulus) after bosentan treatment: ~20 kPa
E0771 tumors [2]; 1 mg/kg daily bosentan, excised E0771 tumors
  tissue stiffness, Young's modulus by atomic force microscopy: confirmed
E0771 tumors [2]; tumors treated with 1 mg/kg
  mechanical fingerprint of the tissue (AFM stiffness histogram): large contribution from cancer cells and little contribution from collagen
E0771 tumors [2]; tumors treated with 10 mg/kg
  mechanical fingerprint of the tissue (AFM stiffness histogram): heterogenous collagen contribution
